Experimental data taken from article PMC9433317, “Discovery, structure and mechanism of a tetraether lipid synthase” (Nature, 2022).

What was measured:
[1] = target: T1, GDGT–MAS (MJ0619; Tes) (Methanocaldococcus jannaschii, UniProt Q58036); assay: X-ray crystal structure, […] Å; type: binding; conditions: lipid-exchanged from M. acetivorans extract; with 5'-dAH and methionine; lipid identity assigned from electron density; second lipid site
T1 sequence (Q58036 1-506): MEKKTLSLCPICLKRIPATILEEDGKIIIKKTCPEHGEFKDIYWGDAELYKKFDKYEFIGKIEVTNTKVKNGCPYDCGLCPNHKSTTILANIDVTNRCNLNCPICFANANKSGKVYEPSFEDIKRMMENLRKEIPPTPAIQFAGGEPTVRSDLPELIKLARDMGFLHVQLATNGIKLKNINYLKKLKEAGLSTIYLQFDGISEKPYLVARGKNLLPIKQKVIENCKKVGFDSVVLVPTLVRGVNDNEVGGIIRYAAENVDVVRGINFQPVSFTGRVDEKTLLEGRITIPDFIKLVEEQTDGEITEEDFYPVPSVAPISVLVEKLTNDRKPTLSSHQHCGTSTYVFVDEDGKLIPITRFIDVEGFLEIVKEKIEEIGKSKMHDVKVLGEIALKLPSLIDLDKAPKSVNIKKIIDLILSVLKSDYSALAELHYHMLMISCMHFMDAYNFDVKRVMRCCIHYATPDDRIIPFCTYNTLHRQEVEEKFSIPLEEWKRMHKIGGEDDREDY

[2] = target: T1, GDGT–MAS (MJ0619; Tes); assay: X-ray crystal structures, […] Å and […] Å; type: binding; conditions: with 5'-dAH and bound lipids; bidentate to the unique iron of the radical SAM [Fe4S4] cluster

| SMILES | X-ray crystal structure, 2.05 Å [1] | X-ray crystal structures, 1.85 Å and 2.05 Å [2] |
| --- | --- | --- |
| CC(C)CCC[C@@H](C)CCC[C@@H](C)CCC[C@@H](C)CCOC[C@@H](COP(=O)(O)O)OCC[C@H](C)CCC[C@H](C)CCC[C@H](C)CCCC(C)C [L1P, 2,3-di-O-phytanyl-sn-glycero-1-phosphate] | Unmodelled electron density in the active site was assigned as two archaeal lipid molecules | – |
| CSCC[C@H](N)C(=O)O [Met, methionine] | – | methionine coordinates to the unique iron in a bidentate manner |
